According to article PMC6934184, “Selective DNA-PKcs inhibition extends the therapeutic index of localized radiotherapy and chemotherapy” (The Journal of Clinical Investigation, 2019):

Target: T1, NEK6 (Homo sapiens, UniProt Q9HC98)
T1 construct: purchased Thermo Fisher Scientific (Life Technologies) SelectScreen
Experiment: SelectScreen Z'LYTE
Type: biochemical
Summary of the method: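 Percent values come from Thermo SelectScreen profiling of NU5455, combining activity and binding assays. CSF1R was run in Z'LYTE format at Km app ATP, and CAMK1 in Adapta format with ATP listed at 10.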

T1 sequence (Q9HC98 whole entry): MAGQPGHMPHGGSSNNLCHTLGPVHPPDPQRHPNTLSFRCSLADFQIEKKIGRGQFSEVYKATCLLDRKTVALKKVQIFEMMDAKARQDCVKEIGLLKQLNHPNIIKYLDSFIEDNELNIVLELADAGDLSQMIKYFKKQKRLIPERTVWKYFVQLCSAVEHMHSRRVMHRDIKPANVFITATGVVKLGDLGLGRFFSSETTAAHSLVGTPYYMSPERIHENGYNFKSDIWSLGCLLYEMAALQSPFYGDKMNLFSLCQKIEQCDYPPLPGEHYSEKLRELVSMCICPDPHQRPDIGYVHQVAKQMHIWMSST

## CN(C(=O)CN1CCOCC1)c1ccc2sc3c(-c4cccc5c(=O)cc(N6CC7CCC(C6)O7)oc45)cccc3c2c1 [NU5455]
  inhibition at 1 µM: -19.8%
